Measurements published in patent US5292498A, “Method of treating lung disease with uridine triphosphates” (The University of North Carolina At Chapel Hill, priority 1991, dated 1994).

Tests used:
[1] = system: normal human nasal epithelium; experiment: Bioelectric studies (short circuit current, Isc) of normal human nasal epithelium in Ussing chambers; assay type: cell-based; details: for rank order of potency for Cl^- secretion: FIG. 2; for rank order of potency for increase in Isc / character of concentration-effect curve including 10^-3 M / character of log concentration-effect curve / change in ion transport rates: basolateral surface; for rank order of potency for increase in Isc / change in ion transport rates: FIG. 1; for character of concentration-effect curve including 10^-3 M: 10^-3 M drug considered; for character of log concentration-effect curve: 10^-7 to 10^-4 M; for increase in Isc: dipyridamole 10^-6 M; for change in ion transport rates: compared to ATP curve
Method: (§1) Freshly excised human nasal epithelium from normal or cystic fibrosis subjects was grown in primary culture in F-12, hormone-supplemented medium in accordance with known procedures. See R. Wu et al., Am. Rev. Respir. Dis. 132, 311-320 (1985). For [Ca^2+ ]i measurements, cultures were grown on non-fluorescent vitrogen substrates on glass coverslips. Cultures for electrophysiologic studies were grown to confluence on permeable collagen matrix supports (CMS), allowing addition of agonists to the basolateral or apical surface of the epithelial sheet.
(§2) Confluent monolayers of primary human nasal epithelium were mounted in modified Ussing chambers in accordance with known procedures. See, e.g., R. Boucher et al., J. Physiol. (Lond.) 405, 77-103 (1988); M. Knowles et al., Science 221, 1067-1070 (1983). The studies described below were performed under short circuit current conditions at 37° C., and in some studies, amiloride was added to the apical bath (10^-4 M) to block transepithelial sodium transport. Changes in transepithelial potential difference (Vt), resistance (Rt) and short circuit current (Isc) were measured in response to addition of various nucleotides. Each cultured preparation was exposed to only one concentration of an agonist on either the basolateral or apical surface to avoid the tachyphylaxis observed in preliminary cumulative dose response studies. To construct concentration-effect relationships of responses to nucleotides, it was assumed that the same maximum response to an agonist could be induced from each tissue culture preparation from the same individual.
The effects of extracellular ATP on normal human nasal epithelium were investigated employing bioelectric measurements of ion transport activity when the nucleotide was applied to either the apical or basolateral membrane. […] In general, the change in Isc induced by application of ATP to the apical or the basolateral side returned to baseline or below within 5 minutes after addition of agonist. […] Apical pretreatment with amiloride (10^-4 M) removes active Na^+ absorption as a component of the Isc so that the residual Isc reflects a Cl^- secretory current (R. Boucher et al., J. Clin. Invest. 78, 1245-1252 (1986); N. Willumsen et al., Am. J. Physiol. 256, C1033-C1044 (1989)).
A concentration-effect relationship was found when ATP was applied to normal human nasal epithelium under basal conditions (data not shown). Comparisons were made between responses of tissues from different donors based on the peak change in Isc following ATP application. The curve describes the mean peak change in Isc in response to log increasing concentrations of ATP applied to the apical or basolateral surface.
Concentration-effect relationships were also found for ATP applied to the apical or basolateral membrane of amiloride-pretreated tissues (data not shown). Again, the nucleotide's effect on ion transport was examined as the mean peak change in Isc after ATP application.
(§3) The purinergic receptor subtype(s) linked to regulation of ion transport of human nasal epithelium were characterized by obtaining concentration-effect relationships for a variety of purine and pyrimidine agonists in preparations derived from normal and CF patients. We characterized receptor subtype(s) on the […] surface by measuring nucleotide effect on basal Na^+ transport rates. Because therapies designed to induce Cl^- secretion might best be delivered by the aerosol route, receptor subtype characterization on the apical barrier was performed in the presence of amiloride. The effect of extracellular nucleotides on ion transport is reported as the percent change in Isc from control values when applied to the basolateral or apical surface of the culture. Basal pre-agonist currents were similar for tissues in each concentration group.

[2] = system: normal human nasal epithelial cells; experiment: Intracellular calcium [Ca^2+ ]i in single normal human nasal epithelial cells (Fura-2); assay type: cell-based; details: concentration-effect curves, FIG. 3
Method: as §1
(§4) Primary human nasal epithelial cells grown to confluence on vitrogen coated coverslips were loaded with a final concentration of 3 μM Fura-2/AM at 37° C. for 30 minutes. The cells were then washed in NaCl Ringer and mounted in a chamber for measurements of fluorescence. To reduce the rate of leakage of Fura-2 from the cell into the extracellular space and avoid time-dependent compartmentalization of the probe, all measurements of [Ca^2+ ]i were performed at 25° C. At this temperature,no vesicular bright spots indicative of compartmentalization of the probe were observed.
Measurements of [Ca^2+ ]i in single human nasal epithelial cells were obtained with a modular microspectrofluorimeter (SPEX Industries, Inc., Edison, N.J.) attached to a Zeiss Axiovert IM 35 microscope. The system was equipped with a xenon lamp, beam splitter, two monochromators and a rotating chopper mirror that permitted excitation of cell fluorescence at alternating wavelengths of 340 and 380 nm (emission ≥450 nm). The fluorescent signal from a single cell was measured with a photometer equipped with a pinhole (spot diameter of 3-5 μm) that excluded signals from adjacent cells.
After agonist was added, the fluorescent signal was quenched by a NaCl ringer solution containing 1.5×10^-4 M digitonin and 10^-3 M MnCl2. The remaining signal at each excitation wavelength, equivalent to the background fluorescence in non loaded cells, was subtracted from data from Fura-2/AM loaded cells before the ratio (340 nm/380 nm) was taken. The 340 nm/380 nm ratio was converted to an actual [Ca^2+ ]i measurement by using the external calibration standards and the formula derived by G. Grynkiewicz et al., J. Biol. Chem. 260, 3440-3450 (1985), used with dual wavelength measurements: [Ca^2+ ]i =K [(Rx --Ro)/(Rs --Rx)], with Ro and Rs representing the ratios at 0 Ca^2+ and saturating Ca^2+, respectively. Rx represents the experimental ratio.
To investigate whether changes in [Ca^2+ ]i might be related to regulation of ion transport, receptor characterization was performed by measuring changes in [Ca^2+ ]i in response to a number of nucleotide drugs. Concentration-effect curves for agonists active at P2x, P2y subtype or UTP sensitive receptors and other purine or pyrimidine receptor agonists were generated, measuring mean change in [Ca^2+ ]i in response to agonist concentration. Data are shown in FIG. 3, which gives log concentration-effect relationships of purinergic and pyrimidinergic compounds on [Ca^2+ ]i (mean change in [Ca^2+ ]i over basal levels).

[3] = 25° C.; read-out: Kd (effective dissociation constant for Fura-2); cited from earlier work
[4] = system: CF nasal epithelial cells; experiment: Intracellular calcium [Ca^2+ ]i in single CF nasal epithelial cells (Fura-2); assay type: cell-based, human; details: FIG. 6
Method: as §1, with “132, 311-320 (1985).” left out
as §4, with “C.” for “C. At this temperature,no vesicular bright spots indicative of compartmentalization of the probe were observed.”
Measurements of [Ca^2+ ]i in single human nasal epithelial cells were obtained with a modular microspectrofluorimeter (SPEX Industries, Inc., Edison, N.J.) attached to a Zeiss Axiovert IM 35 microscope. […] The fluorescent signal from a single cell was measured with a photometer equipped with a pinhole (spot diameter of 3-5 μm) that excluded signals from adjacent cells. […]

[5] = system: CF human nasal epithelium; experiment: Bioelectric studies (Isc) of cystic fibrosis (CF) human nasal epithelium; assay type: cell-based; details: for Isc response tracing: apical, amiloride-pretreated, FIG. 4C
Method: as §1, §2, §3
Availability of Cystic Fibrosis (CF) tissues is limited, and our investigation of effects of nucleotides was restricted to examining regulation of Cl^- secretion rates and [Ca^2+ ]i levels by ATP and UTP.

[6] = apical surface, amiloride-pretreated

Structure (SMILES) | rank order of potency for Cl^- secretion [1, 6] | rank order of potency for increase in Isc [1] | effectiveness for raising [Ca^2+ ]i [2] | character of concentration-effect curve including 10^-3 M [1] | character of log concentration-effect curve [1] | also measured
CSc1nc(N)c2ncn([C@@H]3O[C@H](COP(=O)(O)OP(=O)(O)OP(=O)(O)O)[C@@H](O)[C@H]3O)c2n1 [2MeSATP, 2-methylthio ATP] | ATP≥UTP>ATPγS>ADP>2MeSATP>ADPβS | 2MeSATP>UTP≥ATP>ATPγS>ADP>ADPβS | little effect |  |  | 
O=c1[nH]c(=O)n([C@@H]2O[C@H](COP(=O)(O)OP(=O)(O)OP(=O)(O)O)[C@@H](O)[C@H]2O)cc1Br [5BrUTP, 5-bromo-uridine 5'-triphosphate] |  |  | essentially as effective as UTP |  |  | 
Nc1ncnc2c1ncn2[C@@H]1O[C@H](COP(=O)(O)OP(=O)(O)O)[C@@H](O)[C@H]1O [ADP] | ATP≥UTP>ATPγS>ADP>2MeSATP>ADPβS | 2MeSATP>UTP≥ATP>ATPγS>ADP>ADPβS |  |  |  | 
Nc1ncnc2c1ncn2[C@@H]1O[C@H](COP(=O)(O)OP(O)(O)=S)[C@@H](O)[C@H]1O [ADPβS] | ATP≥UTP>ATPγS>ADP>2MeSATP>ADPβS | 2MeSATP>UTP≥ATP>ATPγS>ADP>ADPβS | little effect | biphasic in character | sigmoidal character | 
Nc1ncnc2c1ncn2[C@@H]1O[C@H](COP(=O)(O)OP(=O)(O)OP(O)(O)=S)[C@@H](O)[C@H]1O [ATPγS] | ATP≥UTP>ATPγS>ADP>2MeSATP>ADPβS | 2MeSATP>UTP≥ATP>ATPγS>ADP>ADPβS | most effective agonists | biphasic in character | sigmoidal character | 
Cc1ccc(N(CC(=O)O)CC(=O)O)c(OCCOc2cc3cc(-c4ncc(C(=O)O)o4)oc3cc2N(CC(=O)O)CC(=O)O)c1 [Fura-2] |  |  |  |  |  | Kd [3]: 157 nM
O=c1ccn([C@@H]2O[C@H](COP(=O)(O)OP(=O)(O)OP(=O)(O)O)[C@@H](O)[C@H]2O)c(=O)[nH]1 [UTP, uridine 5'-triphosphate] | ATP≥UTP>ATPγS>ADP>2MeSATP>ADPβS | 2MeSATP>UTP≥ATP>ATPγS>ADP>ADPβS | most effective agonists | biphasic in character | sigmoidal character | [Ca^2+ ]i response in CF tissues [4]: Increases in [Ca^2+ ]i; Isc response tracing ([5]; UTP 10^-4 M as printed): Cl^- secretory response; Isc response tracing ([5]; UTP 10^-6 M as printed): Cl^- secretory response; change in Isc over basal levels ([5]; apical surface, amiloride-pretreated CF tissues): routinely stimulated increases in Cl^- secretion
Nc1ncnc2c1ncn2[C@@H]1O[C@H](CO)[C@@H](O)[C@H]1O [adenosine] |  |  |  |  |  | increase in Isc ([1]; 10^-4 M, apical surface, amiloride-pretreated, n=8): 10±6%; increase in Isc ([1]; 10^-5 M or 10^-4 M, basolateral barrier, n=8 each dose): less than 5%; increase in Isc ([1]; 10^-5 M, apical surface, amiloride-pretreated, n=7): 10±7%; change in Isc compared to ATP ([1]; following preincubation with dipyridamole 10^-6 M): only small and variable changes in Isc compared to ATP
Nc1ncnc2c1ncn2[C@@H]1O[C@H](COP(=O)(O)CP(=O)(O)OP(=O)(O)O)[C@@H](O)[C@H]1O [αβMeATP, α,β-methylene ATP] |  |  | little effect |  |  | change in ion transport rates [1]: little change in ion transport rates
Nc1ncnc2c1ncn2[C@@H]1O[C@H](COP(=O)(O)OP(=O)(O)CP(=O)(O)O)[C@@H](O)[C@H]1O [βγMeATP, β,γ-methylene ATP] |  |  | little effect |  |  | change in ion transport rates [1]: little change in ion transport rates
